# Calls of active or inactive are those of the source. The calls are words filed in the database; no cut-off is given here.
# What was measured:
# [1] = tested on: Human immunodeficiency virus 1; assay: Antiviral activity against HIV1 clinical isolate 10 infected in U87.CD4 cells expressing human CXCR4 D171N mutant; assay type: functional, organism-based; settings: Human immunodeficiency virus 1, U87.CD4
# [2] = tested on: Human immunodeficiency virus 1; assay: Antiviral activity against HIV1 NL43 infected in U87.CD4 cells expressing human CXCR4 D171N mutant; assay type: functional, organism-based; settings: Human immunodeficiency virus 1, NL43, U87.CD4
# [3] = tested on: Human immunodeficiency virus 1; assay: Antiviral activity against HIV1 clinical isolate 10 infected in U87.CD4 cells expressing human CXCR4 H281A mutant; assay type: functional, organism-based; settings: Human immunodeficiency virus 1, U87.CD4
# [4] = tested on: C-X-C chemokine receptor type 4 (Homo sapiens), P61073 [I259A]; settings: COS-7
# C-X-C chemokine receptor type 4 (Homo sapiens), P61073 [I259A], sequence (P61073 whole entry I259A): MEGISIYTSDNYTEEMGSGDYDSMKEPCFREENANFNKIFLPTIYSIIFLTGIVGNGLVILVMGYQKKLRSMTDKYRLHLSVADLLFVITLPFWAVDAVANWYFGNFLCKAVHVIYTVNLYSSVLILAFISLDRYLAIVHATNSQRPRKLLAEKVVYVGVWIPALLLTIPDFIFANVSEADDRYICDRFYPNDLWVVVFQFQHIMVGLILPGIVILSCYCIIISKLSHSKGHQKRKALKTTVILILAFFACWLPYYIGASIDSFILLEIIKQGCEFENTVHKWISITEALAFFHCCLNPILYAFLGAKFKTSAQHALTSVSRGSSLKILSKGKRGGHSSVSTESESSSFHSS
# [5] = tested on: Human immunodeficiency virus 1; assay: Antiviral activity against HIV1 NL43 infected in U87.CD4 cells expressing human CXCR4 E288A mutant; assay type: functional, organism-based
# [6] = tested on: Human immunodeficiency virus 1; assay: Antiviral activity against HIV1 clinical isolate 10 infected in U87.CD4 cells expressing human CXCR4 D262N mutant; assay type: functional, organism-based; settings: Human immunodeficiency virus 1, U87.CD4
# [7] = tested on: Human immunodeficiency virus 1; assay: Antiviral activity against HIV1 NL43 infected in U87.CD4 cells expressing human CXCR4 D171N/D262N mutant; assay type: functional, organism-based
# [8] = tested on: Human immunodeficiency virus 1; assay: Antiviral activity against HIV1 NDK infected in U87.CD4 cells expressing human CXCR4 E288A mutant; assay type: functional, organism-based; settings: Human immunodeficiency virus 1, NDK
# [9] = tested on: Human immunodeficiency virus 1; assay: Antiviral activity against HIV1 NDK infected in U87.CD4 cells expressing human CXCR4 D171N mutant; assay type: functional, organism-based; settings: Human immunodeficiency virus 1, NDK
# [10] = tested on: C-X-C chemokine receptor type 4 (Homo sapiens), P61073 [H281A]; assay: Antagonist activity at human CXCR4 H281A mutant expressed in U87.CD4 cells assessed as inhibition of CXCL12-induced calcium mobilization; assay type: functional, cell-based
# C-X-C chemokine receptor type 4 (Homo sapiens), P61073 [H281A], sequence (P61073 whole entry H281A, the tested form may be a part): as the sequence (P61073 whole entry I259A) above, with A259I, H281A counted along it
# [11] = tested on: C-X-C chemokine receptor type 4 (Homo sapiens), P61073 [D171N]; assay: Displacement of [125I]12G5 antibody from transmembrane domain 4 of human CXCR4 D171N mutant expressed in COS7 cells; assay type: cell-based; settings: COS-7
# C-X-C chemokine receptor type 4 (Homo sapiens), P61073 [D171N], sequence (P61073 whole entry D171N, the tested form may be a part): as the sequence (P61073 whole entry I259A) above, with D171N, A259I counted along it
# [12] = tested on: Human immunodeficiency virus 1; assay: Antiviral activity against HIV1 NDK infected in U87.CD4 cells expressing human CXCR4 D171ND262N mutant; assay type: functional, organism-based; settings: Human immunodeficiency virus 1, NDK
# [13] = tested on: Human immunodeficiency virus 1; assay: Antiviral activity against HIV1 NL43 infected in U87.CD4 cells expressing human CXCR4 H281A mutant; assay type: functional, organism-based; settings: Human immunodeficiency virus 1, NL43, U87.CD4
# [14] = tested on: Human immunodeficiency virus 1; assay: Antiviral activity against HIV1 clinical isolate 10 infected in U87.CD4 cells expressing human CXCR4 D171ND262N mutant; assay type: functional, organism-based; settings: Human immunodeficiency virus 1, U87.CD4
# [15] = tested on: Human immunodeficiency virus 1; assay: Antiviral activity against HIV1 NDK infected in U87.CD4 cells expressing human CXCR4 H281A mutant; assay type: functional, organism-based; settings: Human immunodeficiency virus 1, NDK
# [16] = tested on: Human immunodeficiency virus 1; assay: Antiviral activity against HIV1 NDK infected in U87.CD4 cells expressing human CXCR4 D262N mutant; assay type: functional, organism-based; settings: Human immunodeficiency virus 1, NDK
# [17] = tested on: C-X-C chemokine receptor type 4 (Homo sapiens), P61073 [H113A]; assay: Displacement of [125I]12G5 antibody from transmembrane domain 3 of human CXCR4 H113A mutant expressed in COS7 cells; assay type: cell-based; settings: COS-7
# C-X-C chemokine receptor type 4 (Homo sapiens), P61073 [H113A], sequence (P61073 whole entry H113A, the tested form may be a part): as the sequence (P61073 whole entry I259A) above, with H113A, A259I counted along it
# [18] = tested on: Human immunodeficiency virus 1; assay: Antiviral activity against HIV1 NL43 infected in U87.CD4 cells expressing human wild type CXCR4; assay type: functional, organism-based; settings: Human immunodeficiency virus 1, NL43, U87.CD4
# [19] = tested on: Human immunodeficiency virus 1; assay: Antiviral activity against HIV1 NL43 infected in U87.CD4 cells expressing human CXCR4 D262N mutant; assay type: functional, organism-based; settings: Human immunodeficiency virus 1, NL43, U87.CD4
# [20] = tested on: Human immunodeficiency virus 1; assay: Antiviral activity against HIV1 NDK infected in U87.CD4 cells expressing human wild type CXCR4; assay type: functional, organism-based; settings: Human immunodeficiency virus 1, NDK
# [21] = tested on: Human immunodeficiency virus 1; assay: Antiviral activity against HIV1 clinical isolate 10 infected U87.CD4 cells expressing human CXCR4 E288A mutant; assay type: functional, organism-based; settings: Human immunodeficiency virus 1, U87.CD4
# [22] = tested on: Human immunodeficiency virus 1; assay: Antiviral activity against HIV1 clinical isolate 10 infected in U87.CD4 cells expressing human wild type CXCR4; assay type: functional, organism-based; settings: Human immunodeficiency virus 1, U87.CD4
smiles,measurement,setting,value
c1cc(CN2CCCNCCNCCCNCC2)ccc1CN1CCCNCCNCCCNCC1 [PLERIXAFOR],IC50,[1],19 nM
same,IC50,[2],46 nM
same,IC50,[3],2.4 nM
same,logKi,[4],-5.81
same,Activity,[5],inactive
same,IC50,[6],2540 nM
same,Activity,[7],inactive
same,IC50,[8],> 6000 nM
same,IC50,[9],17 nM
same,Activity,[10],Active
same,logKi,[11],-4.87
same,IC50,[12],> 3000 nM
same,IC50,[13],< 1.9 nM
same,IC50,[14],2690 nM
same,IC50,[15],< 1.9 nM
same,IC50,[16],> 3000 nM
same,logKi,[17],-5.71
same,IC50,[18],14 nM
same,IC50,[19],> 600 nM
same,IC50,[20],7.6 nM
same,IC50,[21],> 121 nM
same,IC50,[22],3 nM
